Results from PubChem BioAssay AID1963870 (Molecular Pharmacology Branch, DTP, NCI, 2024).

Tested on: 292921-168-R-J2-PDC KRAS tumor spheroid viability
Experiment: Anticancer human tumor 292921-168-R-J2-PDC patient-derived pancreatic carcinoma cell line growth inhibition [KRAS2]
Conditions: spheroids with HUVEC and MSC; for IC50: curve of first compound; for viability, T/C: stronger effect = lower value
Description: Multicellular complex tumor spheroid response to RAS pathway inhibitors in combination with a targeted agents in patient-derived cell lines with oncogenic KRAS variants from multiple cancer types
A high-throughput screen of multi-cell type tumor spheroids was designed to identify active combinations of targeted small molecules and KRAS pathway inhibitors. Complex spheroids include a stromal component modeled by human endothelial cells (HUVEC) and fibroblasts modeled by human mesenchymal stem cells (MSCs). The concentration ranges selected for each drug and investigational agent were based upon clinically achievable concentrations if the clinical Cmax of the agent was known.
Compounds. The drugs and investigational agents: BI-3406 (NSC825286), BAY-293 (NSC824723), batoprotafib (TNO155; NSC825523), sotorasib (AMG 510; NSC818433), MRTX1257 (NSC819558), elimusertib (BAY 1895344; NSC800525), molibresib (GSK525762; NSC774829), temuterkib (LY3214996; NSC803410), venetoclax (NSC766270), alisertib (NSC759677), olaparib (NSC753686), talazoparib (NSC767125), erdafitinib (NSC781556), ipatasertib (NSC767898), cabozantinib (NSC761068), nintedanib (NSC756659), abemaciclib (NSC768073), docetaxel (NSC628503), trametinib (NSC758246), and sapanisertib (NSC764658) were obtained from the National Cancer Institute (NCI) Developmental Therapeutics Program Chemical Repository. The FDA-approved anticancer drug set is available from the Developmental Therapeutics Program. […] The stock solutions were prepared in dimethyl sulfoxide (DMSO, Sigma-Aldrich, St. Louis, MO, cat. D2650) at 800-fold the tested concentration and stored at -70 degrees C prior to their use. All drugs and investigational agents were tested over a range starting from a high concentration at or near the clinical Cmax and decreasing in half-log increments. If the clinical Cmax for an agent had not been determined, the highest concentration tested was 10 microM.
Cell Culture. All cells were maintained in an incubator at 37 degrees C and 5% CO2 with 95% humidity. The PDC lines were cultured according to standard operating procedures established by the NCI PDMR (https://pdmr.cancer.gov/sops/default.htm). Briefly, all PDCs were thawed and cultured in Matrigel-coated flasks prepared with a working solution of 1X Ham's F-12 nutrient mix, without supplementation (Invitrogen, Waltham, MA, cat. 11765054), 100 U/mL penicillin-streptomycin (Invitrogen, cat. 15140122), and 2.5% Matrigel (Corning Inc., Corning, NY, cat. 354248) for the first three passages. All PDCs were cultured in complete DMEM/F-12 media containing advanced DMEM/F-12 (Invitrogen, cat. 12634028), 4.9% defined fetal bovine serum, heat inactivated (HyClone Laboratories Inc., Logan, UT, cat. SH30070.03HI), 389 ng/mL hydrocortisone (Sigma-Aldrich, cat. H4001), 9.7 ng/mL human EGF recombinant protein (Invitrogen, cat. PHG0313), 23.4 microg/mL adenine (Sigma-Aldrich, cat. A2786), 97.3 U/mL penicillin-streptomycin (Invitrogen, cat. 15140122), 1.9 mM L-glutamine (Invitrogen, cat. 25030081), and 9.7 microM Y-27632 dihydrochloride (Tocris Bioscience, Bristol, United Kingdom, cat. 1254). The PDCs were cultured in complete DMEM/F12 media without 9.7 microM Y-27632 dihydrochloride for at least two passages prior to the screen. The established cell line HOP-62 was cultured in RPMI 1640 medium, HEPES (Invitrogen, cat. 22400105) with 10% defined fetal bovine serum (HyClone Laboratories Inc., cat. SH30070.03) and 2 mM L-glutamine (Invitrogen, cat. 25030081). The pooled donor HUVEC were cultured in endothelial cell growth medium 2 (PromoCell, Heidelberg, Germany, cat. C-22011) and the hMSC were cultured in mesenchymal stem cell growth medium 2 (PromoCell, cat. C-28009). For all experiments, HUVEC and hMSC were used at passages </=5, while the malignant cell lines were used at passages </=15. […]

[1] = second compound 0.1 µM, first compound 0.0316 µM
[2] = second compound 0.1 µM, first compound 0.1 µM
[3] = second compound 0.1 µM, first compound 0.316 µM
[4] = second compound 0.1 µM, first compound 1 µM
[5] = second compound 0.316 µM, first compound 0.0316 µM
[6] = second compound 0.316 µM, first compound 0.1 µM
[7] = second compound 0.316 µM, first compound 0.316 µM
[8] = second compound 0.316 µM, first compound 1 µM
[9] = second compound 1 µM, first compound 0.0316 µM
[10] = second compound 1 µM, first compound 0.1 µM
[11] = second compound 1 µM, first compound 0.316 µM
[12] = second compound 1 µM, first compound 1 µM
[13] = second compound 3.16 µM, first compound 0.0316 µM
[14] = second compound 3.16 µM, first compound 0.1 µM
[15] = second compound 3.16 µM, first compound 0.316 µM
[16] = second compound 3.16 µM, first compound 1 µM
[17] = second compound 10 µM, first compound 0.0316 µM
[18] = second compound 10 µM, first compound 0.1 µM
[19] = second compound 10 µM, first compound 0.316 µM
[20] = second compound 10 µM, first compound 1 µM
[21] = second compound 0.1 µM, first compound 0.00316 µM
[22] = second compound 0.1 µM, first compound 0.01 µM
[23] = second compound 0.316 µM, first compound 0.00316 µM
[24] = second compound 0.316 µM, first compound 0.01 µM
[25] = second compound 1 µM, first compound 0.00316 µM
[26] = second compound 1 µM, first compound 0.01 µM
[27] = second compound 3.16 µM, first compound 0.00316 µM
[28] = second compound 3.16 µM, first compound 0.01 µM
[29] = second compound 10 µM, first compound 0.00316 µM
[30] = second compound 10 µM, first compound 0.01 µM
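Further: drug exposure lasted seven days after spheroids formed for three days.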
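Wherever viability, T/C is given: percent of DMSO vehicle control viability which is 100%.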

CC(C)NCC(C(=O)N1CCN(c2ncnc3c2C(C)CC3O)CC1)c1ccc(Cl)cc1 (stereo not given) + C=CC(=O)N1CCN(c2nc(=O)n(-c3c(C)ccnc3C(C)C)c3nc(-c4c(O)cccc4F)c(F)cc23)C(C)C1
IC50 (second compound 0.1 µM): > 10000 nM | IC50 (second compound 0.316 µM): > 10000 nM | IC50 (second compound 1 µM): 6050 nM | IC50 (second compound 3.16 µM): 1640 nM | IC50 (second compound 10 µM): < 31.6 nM | viability, T/C [1]: 95.3% | viability, T/C [2]: 91.2% | viability, T/C [3]: 88.1% | viability, T/C [4]: 86.3% | viability, T/C (second compound 0.1 µM, first compound 3.16 µM): 79.4% | viability, T/C (second compound 0.1 µM, first compound 10 µM): 50.9% | viability, T/C [5]: 96.3% | viability, T/C [6]: 96.2% | viability, T/C [7]: 85.7% | viability, T/C [8]: 81.1% | viability, T/C (second compound 0.316 µM, first compound 3.16 µM): 67.4% | viability, T/C (second compound 0.316 µM, first compound 10 µM): 52.7% | viability, T/C [9]: 92.7% | viability, T/C [10]: 82.3% | viability, T/C [11]: 76.1% | viability, T/C [12]: 75.8% | viability, T/C (second compound 1 µM, first compound 3.16 µM): 63.8% | viability, T/C (second compound 1 µM, first compound 10 µM): 39.8% | viability, T/C [13]: 51.9% | viability, T/C [14]: 63.9% | viability, T/C [15]: 58.7% | viability, T/C [16]: 53.1% | viability, T/C (second compound 3.16 µM, first compound 3.16 µM): 44.4% | viability, T/C (second compound 3.16 µM, first compound 10 µM): 25.9% | viability, T/C [17]: 18.6% | viability, T/C [18]: 22.1% | viability, T/C [19]: 17.8% | viability, T/C [20]: 15.3% | viability, T/C (second compound 10 µM, first compound 3.16 µM): 18.3% | viability, T/C (second compound 10 µM, first compound 10 µM): 11.8%

CCN1CCN(Cc2ccc(Nc3ncc(F)c(-c4cc(F)c5nc(C)n(C(C)C)c5c4)n3)nc2)CC1 + C=CC(=O)N1CCN(c2nc(=O)n(-c3c(C)ccnc3C(C)C)c3nc(-c4c(O)cccc4F)c(F)cc23)C(C)C1
IC50 (second compound 0.1 µM): 58.1 nM | IC50 (second compound 0.316 µM): 85.6 nM | IC50 (second compound 1 µM): 108 nM | IC50 (second compound 3.16 µM): 11.3 nM | IC50 (second compound 10 µM): < 3.16 nM | viability, T/C [21]: 95% | viability, T/C [22]: 78% | viability, T/C [1]: 54.4% | viability, T/C [2]: 45.6% | viability, T/C [3]: 30.5% | viability, T/C [4]: 22.1% | viability, T/C [23]: 95.7% | viability, T/C [24]: 82.4% | viability, T/C [5]: 64.4% | viability, T/C [6]: 47.6% | viability, T/C [7]: 35.3% | viability, T/C [8]: 26.7% | viability, T/C [25]: 96.8% | viability, T/C [26]: 82% | viability, T/C [9]: 66.2% | viability, T/C [10]: 50.4% | viability, T/C [11]: 37.2% | viability, T/C [12]: 22.6% | viability, T/C [27]: 57.7% | viability, T/C [28]: 50% | viability, T/C [13]: 45% | viability, T/C [14]: 34.6% | viability, T/C [15]: 28.9% | viability, T/C [16]: 21.2% | viability, T/C [29]: 18.5% | viability, T/C [30]: 23.9% | viability, T/C [17]: 23.7% | viability, T/C [18]: 22.9% | viability, T/C [19]: 20.4% | viability, T/C [20]: 6.06%

Cn1ncnc1[C@H]1c2n[nH]c(=O)c3cc(F)cc(c23)N[C@@H]1c1ccc(F)cc1 + C=CC(=O)N1CCN(c2nc(=O)n(-c3c(C)ccnc3C(C)C)c3nc(-c4c(O)cccc4F)c(F)cc23)C(C)C1
IC50 (second compound 0.1 µM): > 100 nM | IC50 (second compound 0.316 µM): > 100 nM | IC50 (second compound 1 µM): > 100 nM | IC50 (second compound 3.16 µM): 89.7 nM | IC50 (second compound 10 µM): < 0.316 nM | viability, T/C (second compound 0.1 µM, first compound 0.000316 µM): 103% | viability, T/C (second compound 0.1 µM, first compound 0.001 µM): 104% | viability, T/C [21]: 105% | viability, T/C [22]: 103% | viability, T/C [1]: 87.5% | viability, T/C [2]: 78.5% | viability, T/C (second compound 0.316 µM, first compound 0.000316 µM): 113% | viability, T/C (second compound 0.316 µM, first compound 0.001 µM): 109% | viability, T/C [23]: 105% | viability, T/C [24]: 97.6% | viability, T/C [5]: 97.7% | viability, T/C [6]: 88.4% | viability, T/C (second compound 1 µM, first compound 0.000316 µM): 106% | viability, T/C (second compound 1 µM, first compound 0.001 µM): 97.3% | viability, T/C [25]: 94.9% | viability, T/C [26]: 94.8% | viability, T/C [9]: 83.2% | viability, T/C [10]: 73.3% | viability, T/C (second compound 3.16 µM, first compound 0.000316 µM): 74.3% | viability, T/C (second compound 3.16 µM, first compound 0.001 µM): 64.2% | viability, T/C [27]: 65.1% | viability, T/C [28]: 65.3% | viability, T/C [13]: 54.3% | viability, T/C [14]: 49.2% | viability, T/C (second compound 10 µM, first compound 0.000316 µM): 18.7% | viability, T/C (second compound 10 µM, first compound 0.001 µM): 20.8% | viability, T/C [29]: 20.6% | viability, T/C [30]: 21.9% | viability, T/C [17]: 21.3% | viability, T/C [18]: 18.6%
